According to patent US12594270B2, “Schizophrenic disorder treatment using combination therapy” (Cambridge Cognition Limited, priority 2019, dated 2026):

Legend:
[1] = cited from earlier work
C57BL/6 mice = assay: MK801 induced abnormally persistent latent inhibition; assay type: in vivo; conditions: 4 tone-shock pairings to produce low LI
Procedure: C57BL/6 mice will be used to investigate latent inhibition (LI) conditioned emotional response cessation of drinking model in mice as described in, e.g., Bay-Richter, et al., Enhanced Latent Inhibition in Dopamine Receptor-Deficient Mice is Sex-Specific for the D1 but not D2 Receptor Subtype: Implications for Antipsychotic Drug Action, Int. J. Neuropsychopharmacol. […] On Day 1 to Day 6, animals will undergo lick training where mice will have access to water in a chamber for 15 minutes and the number of licks per animal will be recorded. […] One group will receive 20 presentations [determined from prior experiments to produce reduced LI in controls] of a 5 second 85 dB tone with a 15 second inter-stimulus interval (pre-exposed group, PE); a control group of non-pre-exposed (NPE) mice will be placed in a testing chamber with access to water withdrawn for an identical period of time but will not receive a tone pre-exposure. […] Number of licks for each animal will be recorded and time taken to complete 80-90 licks (A) and 90-100 licks (B) recorded. […] A suppression ratio (SR) will be calculated according to the formula A/(A+B) yielding a scale of […]. […]
In a sixth series of experiments, the ability of the combined Tropisetron and Varenicline treatment to reverse the MK801 induced abnormally persistent latent inhibition effect will be assessed. […]

| Structure (SMILES) | absorption from the gastrointestinal tract ([1]; background statement) | off-target gastrointestinal side effects ([1]; chronic administration, due to 5-HT3 receptor inhibitory activity) | cognitive effects in patients with schizophrenia ([1]; patients with schizophrenia, background statement) | effect of MK801 on latent inhibition (C57BL/6 mice) |
| --- | --- | --- | --- | --- |
| CN1[C@@H]2CC[C@H]1C[C@@H](OC(=O)c1c[nH]c3ccccc13)C2 [Tropisetron] | almost completely absorbed | a reduction in gut transit and constipation | some pro-cognitive effects | – |
| C[C@]12N[C@H](Cc3ccccc31)c1ccccc12 [MK801] | – | – | – | produce abnormally persistent latent inhibition |
